From patent publication EP3345917A1, “ANTIPROTOZOAL COMPOUNDS” (Bacoba AG, priority 2017, dated 2018)
Non-standard residues stand in square brackets, D forms with d. Residues, ends and D or L forms follow the SMILES beside them. *: point of attachment. Acetyl(1-adamantyl) = O=C(CC12CC3CC(CC(C3)C1)C2)*; Dansyl = CN(C)c1cccc2c(S(=O)(=O)*)cccc12; NH((S)CH(Me)CH2NMe2) = C[C@@H](CN(C)C)N*; dGly(nOct) = CCCCCCCC[C@@H](N)C(=O)O; Gly(octyl) = CCCCCCCC[C@H](N)C(=O)O; X5 = CN(C)[C@H]1CCCC[C@@H]1N*; X8 = C[C@@H](CN1CCCCC1)N*; Hexanoyl = CCCCCC(=O)*; X1 = CN(C)C1CCC(N*)CC1; Aib = CC(C)(N)C(=O)O; X9 = c1ccn(CCN*)c1; βAla = NCCC(=O)O

Experiments:
[1] = test system: Trypanosoma cruzi trypomastigote forms (Tulahuen strain); assay: Intracellular Trypanosoma cruzi assay in L6-cells, beta-galactosidase/CPRG readout; assay type: cell-based; settings: In vitro inhibition, read-out: T.cruzi.
Outline: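 L6 rat myoblasts infected with Tulahuen C2C4 LacZ T. cruzi; after incubation, CPRG/Nonidet substrate added and colour developed 2–6 h. Absorbance at 540 nm; IC50 calculated; triplicate tests.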

[2] = test system: Plasmodium falciparum; assay: 3H-hypoxanthine incorporation assay against Plasmodium falciparum; assay type: cell-based; settings: In vitro inhibition, read-out: P.falc NF5
Protocol: (§1) Tests were done in triplicate.
IC50 values were calculated by linear interpolation.

[3] = test system: Trypanosoma brucei rhodesiense (STIB 900 strain); assay: Alamar Blue assay against Trypanosoma brucei rhodesiense grown in axenic medium; assay type: cell-based; settings: In vitro inhibition, read-out: T.b.rhod.
Outline: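 T. b. rhodesiense STIB 900 cultured in axenic medium and exposed to samples in an Alamar Blue viability assay, run in triplicate. IC50 calculated from the readout; melarsoprol served as reference drug.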

[4] = Cytotoxicity assay on L6-cells (Alamar Blue); settings: rat, Cytotox L6, Cytotoxicity against rat myoblast cells (L6)
[5] = test system: intracellular Leishmania donovani (L.don. InMac); assay: Intracellular Leishmania donovani assay (L.don. InMac); assay type: cell-based; settings: In vitro inhibition
Text: as §1

[6] = test system: Axenically grown Leishmania donovani amastigotes (strain MHOM/ET/67/L82); assay: Axenic Leishmania donovani amastigote resazurin assay; assay type: cell-based; settings: In vitro inhibition, read-out: L.don. ax
Outline: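 Strain MHOM/ET/67/L82 amastigotes grown axenically and tested in triplicate by resazurin assay. Plates developed 2-4 hours, fluorescence read at 536 nm excitation/588 nm emission and expressed as percentage of negative control.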

SMILES	IC50 [1]	IC50 [2]	IC50 [3]	IC50 at 70 h [4]	IC50 [5]	IC50 [6]
CCCCCCCC[C@H](NC(=O)[C@@H]1CCCN1S(=O)(=O)c1cccc2c(N(C)C)cccc12)C(=O)N[C@@H](CC(C)C)C(=O)NC(C)(C)C(=O)N[C@@H](CC(C)C)C(=O)N[C@@H](CC(C)C)C(=O)NC(C)(C)C(=O)NC(C)(C)C(=O)NCCC(=O)N[C@@H](C)CN(C)C [Compound 5765, (2S)-2-{[(2S)-1-{[5-(dimethylamino)naphthalen-1-yl]sulfonyl}pyrrolidin-2-yl]formamido}-N-[(1S)-1-[(1-{[(1S)-1-{[(1S)-1-{[1-({1-[(2-{[(2S)-1-(dimethylamino)propan-2-yl]carbamoyl}ethyl)carbamoyl]-1-methylethyl}carbamoyl)-1-methylethyl]carbamoyl}-3-methylbutyl]carbamoyl}-3-methylbutyl]carbamoyl}-1-methylethyl)carbamoyl]-3-methylbutyl]decanamide] (Dansyl-P[Gly(octyl)]L[Aib]LL[Aib][Aib][βAla]-{NH((S)CH(Me)CH2NMe2)})	126 nM	1 nM	1.6 nM	250 nM	203 nM	4.3 nM
CCCCCCCC[C@H](NC(=O)[C@@H]1CCCN1C(=O)CC12CC3CC(CC(C3)C1)C2)C(=O)N[C@@H](CC(C)C)C(=O)NC(C)(C)C(=O)N[C@@H](CC(C)C)C(=O)N[C@@H](CC(C)C)C(=O)NC(C)(C)C(=O)NC(C)(C)C(=O)NCCC(=O)N[C@@H](C)CN(C)C [Compound 5771, (2S)-2-{[(2S)-1-[2-(adamantan-1-yl)acetyl]pyrrolidin-2-yl]formamido}-N-[(1S)-1-[(1-{[(1S)-1-{[(1S)-1-{[1-({1-[(2-{[(2S)-1-(dimethylamino)propan-2-yl]carbamoyl}ethyl)carbamoyl]-1-methylethyl}carbamoyl)-1-methylethyl]carbamoyl}-3-methylbutyl]carbamoyl}-3-methylbutyl]carbamoyl}-1-methylethyl)carbamoyl]-3-methylbutyl]decanamide] ({Acetyl(1-adamantyl)}-P[Gly(octyl)]L[Aib]LL[Aib][Aib][βAla]-{NH((S)CH(Me)CH2NMe2)})	42.1 nM	0.8 nM	6.9 nM	113 nM	58.6 nM	0.8 nM
CCCCCCCC[C@@H](NC(=O)[C@H]1CCCN1C(=O)CCCCC)C(=O)N[C@H](CC(C)C)C(=O)NC(C)(C)C(=O)N[C@H](CC(C)C)C(=O)N[C@H](CC(C)C)C(=O)NC(C)(C)C(=O)NC(C)(C)C(=O)NCCC(=O)N[C@@H](C)CN(C)C [Compound 5849, (2R)-N-[(1R)-1-[(1-{[(1R)-1-{[(1R)-1-{[1-({1-[(2-{[(2S)-1-(dimethylamino)propan-2-yl]carbamoyl}ethyl)carbamoyl]-1-methylethyl}carbamoyl)-1-methylethyl]carbamoyl}-3-methylbutyl]carbamoyl}-3-methylbutyl]carbamoyl}-1-methylethyl)carbamoyl]-3-methylbutyl]-2-{[(2R)-1-hexanoylpyrrolidin-2-yl]formamido}decanamide] (Hexanoyl-[dP][dGly(nOct)][dL][Aib][dL][dL][Aib][Aib][βAla]-{NH((S)CH(Me)CH2NMe2)})	257 nM	7.5 nM	55.6 nM	1070 nM	67.1 nM	3.5 nM
CCCCCCCC[C@H](NC(=O)[C@@H]1CCCN1C(=O)CCCCC)C(=O)N[C@@H](CC(C)C)C(=O)NC(C)(C)C(=O)N[C@H](CC(C)C)C(=O)N[C@H](CC(C)C)C(=O)NC(C)(C)C(=O)NC(C)(C)C(=O)NCCC(=O)N[C@@H](C)CN(C)C [Compound 5850, (2S)-N-[(1S)-1-[(1-{[(1R)-1-{[(1R)-1-{[1-({1-[(2-{[(2S)-1-(dimethylamino)propan-2-yl]carbamoyl}ethyl)carbamoyl]-1-methylethyl}carbamoyl)-1-methylethyl]carbamoyl}-3-methylbutyl]carbamoyl}-3-methylbutyl]carbamoyl}-1-methylethyl)carbamoyl]-3-methylbutyl]-2-{[(2S)-1-hexanoylpyrrolidin-2-yl]formamido}decanamide] (Hexanoyl-P[Gly(octyl)]L[Aib][dL][dL][Aib][Aib][βAla]-{NH((S)CH(Me)CH2NMe2)})	319 nM	0.9 nM	18.5 nM	820 nM	71.5 nM	8.8 nM
CCCCCCCC[C@@H](NC(=O)[C@H]1CCCN1C(=O)CCCCC)C(=O)N[C@H](CC(C)C)C(=O)NC(C)(C)C(=O)N[C@@H](CC(C)C)C(=O)N[C@@H](CC(C)C)C(=O)NC(C)(C)C(=O)NC(C)(C)C(=O)NCCC(=O)N[C@@H](C)CN(C)C [Compound 5851, (2R)-N-[(1R)-1-[(1-{[(1S)-1-{[(1S)-1-{[1-({1-[(2-{[(2S)-1-(dimethylamino)propan-2-yl]carbamoyl}ethyl)carbamoyl]-1-methylethyl}carbamoyl)-1-methylethyl]carbamoyl}-3-methylbutyl]carbamoyl}-3-methylbutyl]carbamoyl}-1-methylethyl)carbamoyl]-3-methylbutyl]-2-{[(2R)-1-hexanoylpyrrolidin-2-yl]formamido}decanamide] (Hexanoyl-[dP][dGly(nOct)][dL][Aib]LL[Aib][Aib][βAla]-{NH((S)CH(Me)CH2NMe2)})	1130 nM	51.7 nM	165 nM	1210 nM	241 nM	144 nM
CCCCCCCC[C@H](NC(=O)[C@@H]1CCCN1C(=O)CCCCC)C(=O)N[C@@H](CC(C)C)C(=O)NC(C)(C)C(=O)N[C@@H](CC(C)C)C(=O)N[C@@H](CC(C)C)C(=O)NC(C)(C)C(=O)NC(C)(C)C(=O)NCCC(=O)NC1CCC(N(C)C)CC1 (stereo partly drawn) [Compound 5881, (2S)-N-[(1S)-1-[(1-{[(1S)-1-{[(1S)-1-{[1-({1-[(2-{[4-(dimethylamino)cyclohexyl]carbamoyl}ethyl)carbamoyl]-1-methylethyl}carbamoyl)-1-methylethyl]carbamoyl}-3-methylbutyl]carbamoyl}-3-methylbutyl]carbamoyl}-1-methylethyl)carbamoyl]-3-methylbutyl]-2-{[(2S)-1-hexanoylpyrrolidin-2-yl]formamido}decanamide] (Hexanoyl-P[Gly(octyl)]L[Aib]LL[Aib][Aib][βAla]-X1)	44 nM	0.2 nM	44200 nM	592 nM	42500 nM	0.7 nM
CCCCCCCC[C@H](NC(=O)[C@@H]1CCCN1C(=O)CCCCC)C(=O)N[C@@H](CC(C)C)C(=O)NC(C)(C)C(=O)N[C@@H](CC(C)C)C(=O)N[C@@H](CC(C)C)C(=O)NC(C)(C)C(=O)NC(C)(C)C(=O)NCCC(=O)N[C@H]1CCCC[C@@H]1N(C)C [Compound 5883, (2S)-N-[(1S)-1-[(1-{[(1S)-1-{[(1S)-1-{[1-({1-[(2-{[(1S,2S)-2-(dimethylamino)cyclohexyl]carbamoyl}ethyl)carbamoyl]-1-methylethyl}carbamoyl)-1-methylethyl]carbamoyl}-3-methylbutyl]carbamoyl}-3-methylbutyl]carbamoyl}-1-methylethyl)carbamoyl]-3-methylbutyl]-2-{[(2S)-1-hexanoylpyrrolidin-2-yl]formamido}decanamide] (Hexanoyl-P[Gly(octyl)]L[Aib]LL[Aib][Aib][βAla]-X5)	460 nM	25300 nM	41300 nM	1480 nM	131 nM	19800 nM
CCCCCCCC[C@H](NC(=O)[C@@H]1CCCN1C(=O)CCCCC)C(=O)N[C@@H](CC(C)C)C(=O)NC(C)(C)C(=O)N[C@@H](CC(C)C)C(=O)N[C@@H](CC(C)C)C(=O)NC(C)(C)C(=O)NC(C)(C)C(=O)NCCC(=O)N[C@@H](C)CN1CCCCC1 [Compound 5886, (2S)-2-{[(2S)-1-hexanoylpyrrolidin-2-yl]formamido}-N-[(1S)-3-methyl-1-[(1-methyl-1-{[(1S)-3-methyl-1-{[(1S)-3-methyl-1-{[1-methyl-1-({1-methyl-1-[(2-{[(2S)-1-(piperidin-1-yl)propan-2-yl]carbamoyl}ethyl)carbamoyl]ethyl}carbamoyl)ethyl]carbamoyl}butyl]carbamoyl}butyl]carbamoyl}ethyl)carbamoyl]butyl]decanamide] (Hexanoyl-P[Gly(octyl)]L[Aib]LL[Aib][Aib][βAla]-X8)	4260 nM	36100 nM	496 nM	938 nM	602 nM	190 nM
CCCCCCCC[C@H](NC(=O)[C@@H]1CCCN1C(=O)CCCCC)C(=O)N[C@@H](CC(C)C)C(=O)NC(C)(C)C(=O)N[C@@H](CC(C)C)C(=O)N[C@@H](CC(C)C)C(=O)NC(C)(C)C(=O)NC(C)(C)C(=O)NCCC(=O)NCCn1cccc1 [Compound 5887, (2S)-2-{[(2S)-1-hexanoylpyrrolidin-2-yl]formamido}-N-[(1S)-3-methyl-1-[(1-methyl-1-{[(1S)-3-methyl-1-{[(1S)-3-methyl-1-{[1-methyl-1-({1-methyl-1-[(2-{[2-(1H-pyrrol-1-yl)ethyl]carbamoyl}ethyl)carbamoyl]ethyl}carbamoyl)ethyl]carbamoyl}butyl]carbamoyl}butyl]carbamoyl}ethyl)carbamoyl]butyl]decanamide] (Hexanoyl-P[Gly(octyl)]L[Aib]LL[Aib][Aib][βAla]-X9)	262 nM	42700 nM	46800 nM	479 nM	41.7 nM	35500 nM
